The record followed here is patent US20250051338A1, “TYK2 DEGRADERS AND USES THEREOF” (Kymera Therapeutics, Inc., priority 2021, published 2025).

A word on the DC50: it is the midpoint of the concentration-degradation curve.

The structures appear in SMILES notation.

Holding throughout (assay type): cell-based
In assay [1] the target is T1, TYK2 (Homo sapiens, UniProt P29597). The assay can be described thus: TYK2 degradation MSD assay in human PBMC cells. The following applies: 4 to 24 hours incubation, read-out: TYK2 MSD DC50 rating in human PBMC. Also noted: endogenous in cells; host or cells: human PBMC. In outline: (§1)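 Cells (0.4 million per well) were treated with a 9-point, 1:3 compound series from a top concentration of 1 to 10 μM for 4 to 24 hours at 37° C, then lysed in RIPA with protease/phosphatase inhibitors. Remaining TYK2 was quantified by sandwich MSD immunoassay; DC50 came from four-parameter nonlinear fits.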
T1 sequence (P29597 whole entry): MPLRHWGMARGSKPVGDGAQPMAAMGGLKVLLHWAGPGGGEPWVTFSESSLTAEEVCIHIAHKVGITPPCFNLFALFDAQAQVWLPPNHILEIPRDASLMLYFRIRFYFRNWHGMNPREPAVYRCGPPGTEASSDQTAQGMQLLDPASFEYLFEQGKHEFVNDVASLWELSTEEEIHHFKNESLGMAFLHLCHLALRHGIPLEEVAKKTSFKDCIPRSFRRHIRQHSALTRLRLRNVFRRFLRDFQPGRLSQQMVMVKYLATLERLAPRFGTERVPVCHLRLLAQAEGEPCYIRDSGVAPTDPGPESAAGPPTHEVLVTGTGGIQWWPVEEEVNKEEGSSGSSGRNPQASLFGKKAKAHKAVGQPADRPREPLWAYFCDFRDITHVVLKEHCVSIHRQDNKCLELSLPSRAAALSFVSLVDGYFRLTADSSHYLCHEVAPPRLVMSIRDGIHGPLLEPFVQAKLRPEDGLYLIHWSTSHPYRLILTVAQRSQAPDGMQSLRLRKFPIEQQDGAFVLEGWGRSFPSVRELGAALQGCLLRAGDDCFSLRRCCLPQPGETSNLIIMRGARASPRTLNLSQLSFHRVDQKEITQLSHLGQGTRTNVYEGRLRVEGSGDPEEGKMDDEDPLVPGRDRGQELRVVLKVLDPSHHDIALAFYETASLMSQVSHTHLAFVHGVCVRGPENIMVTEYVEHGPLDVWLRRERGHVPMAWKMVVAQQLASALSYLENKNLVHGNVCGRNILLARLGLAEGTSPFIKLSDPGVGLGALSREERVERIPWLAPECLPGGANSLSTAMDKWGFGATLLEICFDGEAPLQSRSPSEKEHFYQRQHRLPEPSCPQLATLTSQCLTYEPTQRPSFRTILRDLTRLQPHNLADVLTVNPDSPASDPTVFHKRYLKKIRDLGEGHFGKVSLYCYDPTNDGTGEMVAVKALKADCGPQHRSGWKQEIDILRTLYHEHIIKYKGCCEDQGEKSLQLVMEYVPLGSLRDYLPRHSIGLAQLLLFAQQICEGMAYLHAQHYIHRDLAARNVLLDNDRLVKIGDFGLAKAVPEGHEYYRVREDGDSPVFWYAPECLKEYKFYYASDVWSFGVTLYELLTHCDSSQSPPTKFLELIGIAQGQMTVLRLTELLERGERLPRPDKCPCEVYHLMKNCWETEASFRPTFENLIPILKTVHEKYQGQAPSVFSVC

The target of assay [2] is T1, TYK2. The assay can be described thus: TYK2 degradation MSD assay in EBV-B cells. More on the design: endogenous in cells; host or cells: EBV-B cells. The following applies: 4 to 24 hours incubation, read-out: TYK2 MSD DC50 rating in EBV-B. The gist of the method: as §1
Assay [3] addresses T1, TYK2. The assay can be described thus: TYK2 degradation MSD assay in OCI-LY10 cells. More on the design: endogenous in cells; host or cells: EBV-B cells. The following applies: 4 to 24 hours incubation, read-out: TYK2 MSD DC50 rating in OCI-LY10. The gist of the method: as §1

In the case of `CNc1cc(Nc2cccn(-c3ccc(CN4CCN(c5ccc(-c6ccc7c(c6)n(C)c(=O)n7C6CCC(=O)NC6=O)cn5)C(=O)C4)cn3)c2=O)nn2c(C(=O)N[C@@H]3C[C@@H]3F)cnc12` (stereo partly drawn) [Example K457], the results for the DC50 at TYK2 [1], at TYK2 [2] and on TYK2 [3] were > 100 nM, > 100 nM and < 1 nM, respectively.

Regarding `Cn1c(=O)n(C2CCC(=O)NC2=O)c2ccc(-c3ccc(N4CCN(Cc5ccc(-c6cccc(Nc7ccc8ncc(C(=O)NC9CC9)n8n7)c6)nc5)CC4=O)nc3)cc21` (stereo not drawn) [Example K459], the DC50 at TYK2 [1], at TYK2 [2] and at TYK2 [3] was > 100 nM each time.

With `CNc1cc(Nc2cccc(-c3ccc(CN4CCN(c5cccc6c5n(C)c(=O)n6C5CCC(=O)NC5=O)CC4)cn3)c2)nn2c(C(=O)N[C@@H]3C[C@@H]3F)cnc12` (stereo partly drawn) [Example K460], the DC50 on TYK2 [1] is > 100 nM; at TYK2 [2] it was > 100 nM; at TYK2 [3] it was < 1 nM.

Take `CNc1cc(Nc2cccc(-c3ccc(CNCc4ccc(N5CCC(N6CCC(c7ccc8c(c7)n(C)c(=O)n8C7CCC(=O)NC7=O)C6)CC5)cc4)cn3)c2)nn2c(C(=O)N[C@@H]3C[C@@H]3F)cnc12` (stereo partly drawn) [Example K461]: the values for the DC50 on TYK2 [1], at TYK2 [2] and on TYK2 [3] were > 100 nM, > 100 nM and 1 to 10 nM, respectively.

Turning to `CNc1cc(Nc2cccn(-c3ccc(C(=O)N4CCC(N5CCC(N6CCN(c7cccc8c7n(C)c(=O)n8C7CCC(=O)NC7=O)CC6)CC5)CC4)cn3)c2=O)nn2c(C(=O)N[C@@H]3C[C@@H]3F)cnc12` (stereo partly drawn) [Example K462], the values for the DC50 on TYK2 [1], at TYK2 [2] and on TYK2 [3] were > 100 nM, > 100 nM and 1 to 10 nM, respectively.

`CNc1cc(Nc2cccc(-c3ccc(CN4CCN(C5CCC(c6ccc(-c7ccc8c(c7)n(C)c(=O)n8C7CCC(=O)NC7=O)cc6)CC5)CC4)cn3)c2)nn2c(C(=O)N[C@@H]3C[C@@H]3F)cnc12` (stereo partly drawn) [Example K463]: the 50% degradation concentration (DC50) is > 100 nM on TYK2 [1], > 100 nM on TYK2 [2] and 1 to 10 nM on TYK2 [3].

As to `CNc1cc(Nc2cccc(-c3ccc(CN4CC5(CCN(c6cccc7c6n(C)c(=O)n7C6CCC(=O)NC6=O)CC5)C4)cn3)c2)nn2c(C(=O)N[C@@H]3C[C@@H]3F)cnc12` (stereo partly drawn) [Example K464], the DC50 on TYK2 [1] is > 100 nM; at TYK2 [2] it was > 100 nM; on TYK2 [3] it was 1 to 10 nM.

Consider `CNc1cc(Nc2cccc(N3CCC(CN4CCC(C#Cc5cccc6c5n(C)c(=O)n6C5CCC(=O)NC5=O)CC4)CC3)c2)nn2c(C(=O)N[C@@H]3C[C@@H]3F)cnc12` (stereo partly drawn) [Example K465], for which the DC50 at TYK2 [1] was > 100 nM; on TYK2 [2], > 100 nM; on TYK2 [3] it was 1 to 10 nM.

`CNc1cc(Nc2cccc(N3CCN(CC4CCN(c5ccc(-c6ccc7c(c6)n(C)c(=O)n7C6CCC(=O)NC6=O)cc5)CC4)CC3)c2)nn2c(C(=O)N[C@@H]3C[C@@H]3F)cnc12` (stereo partly drawn) [Example K466]: the DC50 at TYK2 [1] was > 100 nM; on TYK2 [2] it was < 1 nM; at TYK2 [3], > 100 nM.

In the case of `CNc1cc(Nc2cccc(-c3ccc(CN4CCN(c5cccc6c(N7CCC(=O)NC7=O)cncc56)CC4)cn3)c2)nn2c(C(=O)N[C@@H]3C[C@@H]3F)cnc12` [Example K467], the DC50 at TYK2 [1] was > 100 nM; at TYK2 [2], 10 to 100 nM; at TYK2 [3], > 100 nM.

On to `O=C1CCN(c2cnc3cc(CCOCCOCCOCCOCCNc4cc(Nc5cccn(-c6ccccn6)c5=O)nn5c(C(=O)N[C@@H]6C[C@@H]6F)cnc45)ccn23)C(=O)N1` [Example K468], for which the DC50 on TYK2 [1] was 10 to 100 nM; on TYK2 [2], > 100 nM; on TYK2 [3], > 100 nM.

`CNc1cc(Nc2cccc(-c3ccc(CN4CCN(c5ccc(-c6ccc7c(c6)n(C)c(=O)n7C6CCC(=O)NC6=O)cc5)CC4)cn3)c2OC)nn2c(C(=O)N[C@@H]3C[C@@H]3F)cnc12` (stereo partly drawn) [Example K479]: the DC50 is > 100 nM on TYK2 [1], < 1 nM at TYK2 [2] and < 1 nM at TYK2 [3].

For `CNc1cc(-c2ccc(-c3ccc(CN4CCC(N5CC(N6CCN(c7ccc8c(c7)n(C)c(=O)n8C7CCC(=O)NC7=O)CC6)C5)CC4)cn3)cc2)nn2c(C(=O)N[C@@H]3C[C@@H]3F)cnc12` (stereo partly drawn) [Example K480], the values for the DC50 on TYK2 [1], at TYK2 [2] and at TYK2 [3] were > 100 nM, > 100 nM and < 1 nM, respectively.

Regarding `CNc1cc(N(C)c2cccc(-c3ccc(CN4CCN(c5ccc(-c6ccc7c(c6)n(C)c(=O)n7C6CCC(=O)NC6=O)cc5)CC4)cn3)c2)nn2c(C(=O)N[C@@H]3C[C@@H]3F)cnc12` (stereo partly drawn) [Example K481], the DC50 at TYK2 [1], on TYK2 [2] and on TYK2 [3] was > 100 nM each time.

As for `CNc1cc(Nc2cccc(-c3ccc(CN4CCN(c5ccc(-c6ccc7c(c6)n(C)c(=O)n7C6CCC(=O)NC6=O)cc5)CC4)cn3)c2)nn2c(C(=O)NC3CC3OC)cnc12` (stereo not drawn) [Example K482], the DC50 on TYK2 [1] was > 100 nM; at TYK2 [2], > 100 nM; on TYK2 [3] it was 1 to 10 nM.

For the compound `CNc1cc(Nc2cccc(-c3ccc(CN4CCN(c5ccc(-c6ccc7c(c6)n(C)c(=O)n7C6CCC(=O)NC6=O)cc5)CC4)cn3)c2)nn2c(C(=O)NC3CCC3)cnc12` (stereo not drawn) [Example K483], the DC50 on TYK2 [1] was > 100 nM; at TYK2 [2], > 100 nM; on TYK2 [3], 1 to 10 nM.

As to `Cn1c(=O)n(C2CCC(=O)NC2=O)c2ccc(-c3ccc(N4CCN(Cc5ccc(-c6cccc(Nc7cc(C8CC8)c8ncc(C(=O)N[C@@H]9C[C@@H]9F)n8n7)c6)nc5)CC4)cc3)cc21` (stereo partly drawn) [Example K484], the DC50 at TYK2 [1], at TYK2 [2] and on TYK2 [3] was > 100 nM throughout.

With `CNc1cc(Nc2cccc(CN3CCN(c4ccc(-c5ccc6c(c5)n(C)c(=O)n6C5CCC(=O)NC5=O)cc4)CC3)c2)nn2c(C(=O)N[C@@H]3C[C@@H]3F)cnc12` (stereo partly drawn) [Example K486], the DC50 on TYK2 [1] is > 100 nM; on TYK2 [2], > 100 nM; at TYK2 [3], < 1 nM.

`CNc1cc(Nc2cccc(-c3ccc(CN4CCC(N5CC(N6CCN(c7ccc8c(c7)n(C)c(=O)n8C7CCC(=O)NC7=O)CC6)C5)CC4)cn3)c2OC)nn2c(C(=O)N[C@@H]3C[C@@H]3F)cnc12` (stereo partly drawn) [Example K487]: the DC50 at TYK2 [1] is > 100 nM; at TYK2 [2], > 100 nM; on TYK2 [3], < 1 nM.

`CNc1cc(Nc2cccc(-c3ccc(CN4CCN(c5ccc(-c6cccc7c6n(C)c(=O)n7C6CCC(=O)NC6=O)cc5)CC4)cn3)c2OC)nn2c(C(=O)N[C@@H]3C[C@@H]3F)cnc12` (stereo partly drawn) [Example K488]: the DC50 at TYK2 [1] is > 100 nM; at TYK2 [2], > 100 nM; at TYK2 [3] it was 1 to 10 nM.

With `CNc1cc(Nc2cccc(-c3ccc(CN4CCN(C(=O)c5ccc(Cl)c(N6CCC(=O)NC6=O)c5)CC4)cn3)c2OC)nn2c(C(=O)N[C@@H]3C[C@@H]3F)cnc12` [Example K489], the DC50 on TYK2 [1], on TYK2 [2] and on TYK2 [3] was > 100 nM throughout.

With `CNc1cc(Nc2cccc(CN3CCC(CN4CCN(c5ccc6c(c5)n(C)c(=O)n6C5CCC(=O)NC5=O)CC4)CC3)c2)nn2c(C(=O)N[C@@H]3C[C@@H]3F)cnc12` (stereo partly drawn) [Example K490], the figures for the DC50 on TYK2 [1], at TYK2 [2] and at TYK2 [3] were > 100 nM, > 100 nM and < 1 nM, respectively.

On to `CNc1cc(N2CCOc3c(-c4ccc(CN5CCN(c6ccc(-c7ccc8c(c7)n(C)c(=O)n8C7CCC(=O)NC7=O)cc6)CC5)cn4)cccc32)nn2c(C(=O)N[C@@H]3C[C@@H]3F)cnc12` (stereo partly drawn) [Example K491], for which the DC50 at TYK2 [1] is > 100 nM; at TYK2 [2] it was > 100 nM; at TYK2 [3], 10 to 100 nM.

On to `CNc1cc(-c2ccc(-c3ccc(CN4CCN(c5ccc(-c6ccc7c(c6)n(C)c(=O)n7C6CCC(=O)NC6=O)cc5)CC4)cc3)c3nccn23)nn2c(C(=O)N[C@@H]3C[C@@H]3C)cnc12` (stereo partly drawn) [Example K492], for which the figures for the 50% degradation concentration (DC50) at TYK2 [1], on TYK2 [2] and at TYK2 [3] were > 100 nM, > 100 nM and 10 to 100 nM, respectively.

In the case of `CNc1cc(-c2ccc(-c3ccc(CN4CCC(CN5CCN(c6ccc7c(c6)n(C)c(=O)n7C6CCC(=O)NC6=O)CC5)CC4)cn3)cc2)nn2c(C(=O)N[C@@H]3C[C@@H]3F)cnc12` (stereo partly drawn) [Example K493], the DC50 at TYK2 [1] is > 100 nM; at TYK2 [2] it was > 100 nM; on TYK2 [3], 1 to 10 nM.

Consider `CNc1cc(N2CCc3c(-c4ccc(CN5CCN(c6ccc(-c7cccc8c7n(C)c(=O)n8C7CCC(=O)NC7=O)cc6)CC5)cn4)cccc32)nn2c(C(=O)N[C@@H]3C[C@@H]3F)cnc12` (stereo partly drawn) [Example K494], for which the DC50 is > 100 nM on TYK2 [1], > 100 nM on TYK2 [2] and 10 to 100 nM at TYK2 [3].

In the case of `CNc1cc(Nc2cccn(-c3ccc(CN4CCN(c5ccc(-c6ccc7c(c6)n(C)c(=O)n7C6CCC(=O)NC6=O)cc5)CC4)cn3)c2=O)nn2c(C(=O)N[C@@H]3C[C@@H]3F)cnc12` (stereo partly drawn) [Example K495], the half-maximal degradation concentration (DC50) on TYK2 [1] is > 100 nM; at TYK2 [2] it was > 100 nM; at TYK2 [3], < 1 nM.

Turning to `CNC1=CC(Nc2cccc(-c3ccc(CN4CCN(CC5CCN(C(=O)c6ccc(Cl)c(N7CCC(=O)NC7=O)c6)CC5)CC4)cn3)c2)=NC2C(C(=O)N[C@@H]3C[C@@H]3F)=CN=C12` (stereo partly drawn) [Example K496], the DC50 on TYK2 [1] was > 100 nM; at TYK2 [2] it was > 100 nM; on TYK2 [3], 1 to 10 nM.

As for `CNc1cc(N2CCc3c(-c4ccc(CN5CC6(CCN(C(=O)c7ccc(Cl)c(N8CCC(=O)NC8=O)c7)CC6)C5)cn4)cccc32)nn2c(C(=O)N[C@@H]3C[C@@H]3F)cnc12` [Example K498], the half-maximal degradation concentration (DC50) on TYK2 [1] was > 100 nM; on TYK2 [2] it was < 1 nM; on TYK2 [3], < 1 nM.

With `CNc1cc(Nc2cccc(-c3ccc(CN4CCN(c5ccc(-c6ccc7c(c6)n(C)c(=O)n7C6CCC(=O)NC6=O)cc5)CC4)cn3)c2)nn2c(C(=O)N[C@@H]3C[C@@H]3F)cnc12` (stereo partly drawn) [Example K499], the DC50 at TYK2 [1], on TYK2 [2] and at TYK2 [3] was > 100 nM throughout.
